Assay results reported in PubChem BioAssay AID248 (DTP/NCI, 2004).
Where “and” joins values, the source holds several entries; their conditions need not be identical. Identical values can stand only once. Toxic doses and inconclusive results are not listed.

Tested on: L1210 leukemia ip in BDF1 mice, survival T/C
Assay: NCI In Vivo Anticancer Drug Screen. Data for tumor model L1210 Leukemia (intraperitoneal) in B6D2F1 (BDF1) mice
Conditions: endpoint: mean survival time, higher = longer survival
How it was run: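 Ratio derived from survival: compound-dosed mice over vehicle-dosed mice, all bearing a transplantable tumor.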

[1] = dose: 100.0 mg/kg/injection, schedule: Q01DX001 (ip), vehicle: saline
[2] = dose: 200.0 mg/kg/injection, schedule: Q01DX001 (ip), vehicle: saline
[3] = dose: 400.0 mg/kg/injection, schedule: Q01DX001 (ip), vehicle: saline
[4] = dose: 100.0 mg/kg/injection, schedule: Q04DX003 (ip), vehicle: saline with Tween-80
[5] = dose: 200.0 mg/kg/injection, schedule: Q04DX003 (ip), vehicle: saline with Tween-80
[6] = dose: 100.0 mg/kg/injection, schedule: Q01DX009 (ip), vehicle: saline with Tween-80
[7] = dose: 400.0 mg/kg/injection, schedule: Q04DX003 (ip), vehicle: saline with Tween-80
[8] = dose: 100.0 mg/kg/injection, schedule: Q04DX002 (ip), vehicle: Klucel (hydroxypropylcellulose) (HPC)
[9] = dose: 200.0 mg/kg/injection, schedule: Q04DX002 (ip), vehicle: Klucel (hydroxypropylcellulose) (HPC)
[10] = dose: 400.0 mg/kg/injection, schedule: Q04DX002 (ip), vehicle: Klucel (hydroxypropylcellulose) (HPC)
[11] = dose: 50.0 mg/kg/injection, schedule: Q01DX009 (ip), vehicle: saline
[12] = dose: 100.0 mg/kg/injection, schedule: Q01DX009 (ip), vehicle: saline

## C(CC1CO1)CC1OC1CC1CO1 (configuration not stated)
dose: 15.0 mg/kg/injection, schedule: Q01DX009 (ip), vehicle: Klucel (hydroxypropylcellulose) (HPC)
  T/C: 102 % of control
dose: 18.0 mg/kg/injection, schedule: Q04DX003 (ip), vehicle: saline with Tween-80
  T/C: 110 % of control
dose: 26.0 mg/kg/injection, schedule: Q04DX003 (ip), vehicle: saline with Tween-80
  T/C: 110 % of control
dose: 30.0 mg/kg/injection, schedule: Q01DX009 (ip), vehicle: Klucel (hydroxypropylcellulose) (HPC)
  T/C: 105 % of control
dose: 39.0 mg/kg/injection, schedule: Q04DX003 (ip), vehicle: saline with Tween-80
  T/C: 106 % of control
dose: 40.0 mg/kg/injection, schedule: Q04DX003 (ip), vehicle: saline
  T/C: 108 % of control
dose: 45.0 mg/kg/injection, schedule: Q01DX009 (ip), vehicle: Klucel (hydroxypropylcellulose) (HPC)
  T/C: 108 % of control
dose: 59.0 mg/kg/injection, schedule: Q04DX003 (ip), vehicle: saline with Tween-80
  T/C: 108 % of control
dose: 60.0 mg/kg/injection, schedule: Q01DX009 (ip), vehicle: Klucel (hydroxypropylcellulose) (HPC)
  T/C: 113 % of control
dose: 80.0 mg/kg/injection, schedule: Q04DX003 (ip), vehicle: saline
  T/C: 118 % of control
dose: 89.0 mg/kg/injection, schedule: Q04DX003 (ip), vehicle: saline with Tween-80
  T/C: 117 % of control
dose: 120.0 mg/kg/injection, schedule: Q01DX009 (ip), vehicle: other
  T/C: 119 % of control
dose: 133.0 mg/kg/injection, schedule: Q01DX009 (ip), vehicle: saline with Tween-80
  T/C: 97 % of control
dose: 133.0 mg/kg/injection, schedule: Q04DX003 (ip), vehicle: saline with Tween-80
  T/C: 115 % of control
dose: 160.0 mg/kg/injection, schedule: Q04DX003 (ip), vehicle: saline
  T/C: 154 % of control

## O=C1OC(C(O)CO)C(O)C1O (configuration not stated)
dose: 25.0 mg/kg/injection, schedule: Q04DX002 (ip), vehicle: saline with Tween-80
  T/C: 101 % of control
dose: 50.0 mg/kg/injection, schedule: Q01DX001 (ip), vehicle: saline
  T/C: 94 % of control
dose: 50.0 mg/kg/injection, schedule: Q04DX002 (ip), vehicle: saline with Tween-80
  T/C: 101 % of control
[1]
  T/C: 100 % of control
dose: 100.0 mg/kg/injection, schedule: Q04DX002 (ip), vehicle: saline with Tween-80
  T/C: 96 % of control
[2]
  T/C: 100 % of control
dose: 200.0 mg/kg/injection, schedule: Q04DX002 (ip), vehicle: saline with Tween-80
  T/C: 101 % of control
[3]
  T/C: 92 % of control

## Cc1c2c(c(C)c3ccncc13)S(=O)(=O)c1ccccc1-2
dose: 75.0 mg/kg/injection, schedule: Q01DX001 (ip), vehicle: other
  T/C: 95 % of control
dose: 150.0 mg/kg/injection, schedule: Q01DX001 (ip), vehicle: other
  T/C: 93 % of control
dose: 300.0 mg/kg/injection, schedule: Q01DX001 (ip), vehicle: other
  T/C: 93 % of control

## COC(=O)C(CCCCN=Cc1ccccc1O)N=Cc1ccccc1O.[Ni] (configuration not stated)
[4]
  T/C: 87 % of control
[5]
  T/C: 88 % of control

## C1CCCC2(CCC1)OCCO2
[6]
  T/C: 93 % of control
[4]
  T/C: 113 % of control
dose: 200.0 mg/kg/injection, schedule: Q01DX009 (ip), vehicle: saline with Tween-80
  T/C: 102 % of control
[5]
  T/C: 108 % of control
dose: 400.0 mg/kg/injection, schedule: Q01DX009 (ip), vehicle: saline with Tween-80
  T/C: 101 % of control
[7]
  T/C: 94 % of control

## O=S1(=O)C(c2ccccc2)=C1c1ccccc1
dose: 12.5 mg/kg/injection, schedule: Q01DX001 (ip), vehicle: other
  T/C: 100 % of control
dose: 12.5 mg/kg/injection, schedule: Q01DX009 (ip), vehicle: other
  T/C: 95 % of control
dose: 25.0 mg/kg/injection, schedule: Q01DX001 (ip), vehicle: other
  T/C: 94 % of control and 100 % of control
dose: 25.0 mg/kg/injection, schedule: Q01DX009 (ip), vehicle: other
  T/C: 101 % of control
dose: 50.0 mg/kg/injection, schedule: Q01DX001 (ip), vehicle: other
  T/C: 97 % of control and 101 % of control
dose: 50.0 mg/kg/injection, schedule: Q01DX009 (ip), vehicle: other
  T/C: 86 % of control

## COc1ccc(CCNC(=O)Cc2ccccc2[N+](=O)[O-])cc1OC
dose: 10.0 mg/kg/injection, schedule: Q01DX001 (ip), vehicle: carboxymethylcellulose (CMC)
  T/C: 100 % of control
dose: 20.0 mg/kg/injection, schedule: Q01DX001 (ip), vehicle: carboxymethylcellulose (CMC)
  T/C: 100 % of control
dose: 40.0 mg/kg/injection, schedule: Q01DX001 (ip), vehicle: carboxymethylcellulose (CMC)
  T/C: 96 % of control
dose: 80.0 mg/kg/injection, schedule: Q01DX001 (ip), vehicle: carboxymethylcellulose (CMC)
  T/C: 96 % of control

## CCC(COC(C)=O)(COC(C)=O)[N+](=O)[O-]
dose: 100.0 mg/kg/injection, schedule: Q04DX003 (ip), vehicle: Klucel (hydroxypropylcellulose) (HPC)
  T/C: 103 % of control
dose: 200.0 mg/kg/injection, schedule: Q04DX003 (ip), vehicle: Klucel (hydroxypropylcellulose) (HPC)
  T/C: 98 % of control
dose: 400.0 mg/kg/injection, schedule: Q04DX003 (ip), vehicle: Klucel (hydroxypropylcellulose) (HPC)
  T/C: 101 % of control

## Cc1nc(N)[nH]c(=O)c1CCC(C)C
[8]
  T/C: 93 % of control
[9]
  T/C: 100 % of control
[10]
  T/C: 96 % of control

## O=[N+]([O-])c1ccccc1S(=O)(=O)C1CC1c1ccccc1 (configuration not stated)
[1]
  T/C: 109 % of control
[2]
  T/C: 102 % of control
[3]
  T/C: 103 % of control

## c1ccc(Cc2nn[nH]n2)cc1
[8]
  T/C: 105 % of control
[9]
  T/C: 101 % of control
[10]
  T/C: 105 % of control

## Cc1ccc(Oc2ccc(-c3cc(=O)c4cc(S(=O)(=O)F)ccc4[nH]3)cc2)cc1
dose: 100.0 mg/kg/injection, schedule: Q04DX003 (ip), vehicle: gum acacia
  T/C: 96 % of control
dose: 200.0 mg/kg/injection, schedule: Q04DX003 (ip), vehicle: gum acacia
  T/C: 88 % of control
dose: 400.0 mg/kg/injection, schedule: Q04DX003 (ip), vehicle: gum acacia
  T/C: 86 % of control

## Nc1nc(N)c(CCCCc2ccccc2)c(Cc2ccccc2)n1
dose: 50.0 mg/kg/injection, schedule: Q01DX009 (ip), vehicle: Klucel (hydroxypropylcellulose) (HPC)
  T/C: 98 % of control
dose: 100.0 mg/kg/injection, schedule: Q01DX009 (ip), vehicle: Klucel (hydroxypropylcellulose) (HPC)
  T/C: 106 % of control
dose: 200.0 mg/kg/injection, schedule: Q01DX009 (ip), vehicle: Klucel (hydroxypropylcellulose) (HPC)
  T/C: 98 % of control

## Cc1cc(C(C)(C)c2ccc(O)c(C)c2)ccc1O
[11]
  T/C: 97 % of control
[12]
  T/C: 97 % of control
[4]
  T/C: 100 % of control
dose: 200.0 mg/kg/injection, schedule: Q01DX009 (ip), vehicle: saline
  T/C: 94 % of control
[5]
  T/C: 102 % of control
[7]
  T/C: 107 % of control

## CCCCCCP(=O)(O)O
[6]
  T/C: 88 % of control

## CN1CCCCC1(Cc1ccccc1)Cc1ccccc1
[11]
  T/C: 102 % of control
[12]
  T/C: 90 % of control
dose: 100.0 mg/kg/injection, schedule: Q04DX003 (ip), vehicle: saline
  T/C: 106 % of control
dose: 200.0 mg/kg/injection, schedule: Q04DX003 (ip), vehicle: saline
  T/C: 95 % of control

## Cc1ccc(/C=C/[N+](=O)[O-])cc1
dose: 6.25 mg/kg/injection, schedule: Q01DX009 (ip), vehicle: saline sonified
  T/C: 100 % of control
dose: 6.25 mg/kg/injection, schedule: Q04DX003 (ip), vehicle: Klucel (hydroxypropylcellulose) (HPC)
  T/C: 97 % of control
dose: 12.5 mg/kg/injection, schedule: Q01DX009 (ip), vehicle: saline sonified
  T/C: 101 % of control
dose: 12.5 mg/kg/injection, schedule: Q04DX003 (ip), vehicle: Klucel (hydroxypropylcellulose) (HPC)
  T/C: 97 % of control
dose: 25.0 mg/kg/injection, schedule: Q01DX009 (ip), vehicle: saline sonified
  T/C: 101 % of control
dose: 25.0 mg/kg/injection, schedule: Q04DX003 (ip), vehicle: Klucel (hydroxypropylcellulose) (HPC)
  T/C: 93 % of control

## CC1(C)C(=NC2CCCCC2)C(C)(C)C1=NC1CCCCC1
dose: 75.0 mg/kg/injection, schedule: Q01DX001 (ip), vehicle: saline
  T/C: 101 % of control
dose: 150.0 mg/kg/injection, schedule: Q01DX001 (ip), vehicle: saline
  T/C: 100 % of control
dose: 300.0 mg/kg/injection, schedule: Q01DX001 (ip), vehicle: saline
  T/C: 100 % of control
